In PMC11823609, “Advancements in the fight against globally distributed OXA-48 carbapenemase: evaluating the new generation of carbapenemase inhibitors” (Antimicrobial Agents and Chemotherapy, 2025):
In brackets after ≈: the same amount, converted by molar mass.

Assays:
OXA-48 = OXA-48 (Klebsiella pneumoniae, UniProt Q6XEC0); details: ref 26 Lahiri et al.; cited from earlier work
[1] = test system: E. coli TG1 and HB4 transformants; assay: MIC summary over E. coli transformants; format: cell-based, Escherichia coli
Excerpt: (§1) The E. coli HB4 strain was used to gain a more complete perspective, by evaluating the involvement in resistance of a low permeability background with the carbapenemase OXA-48, as well as coproduction of an ESBL and the carbapenemase; thus, the ESBL CTX-M-14 and OXA-48 were cloned together and separately into E. coli HB4. The characteristics of these strains and transformants are summarized in Table S1, and the cloning procedures are outlined in the supplemental methods.
(§2) The MICs of each of the individual compounds (antibiotics or inhibitors) were also determined. The MICs were determined for the E. coli isogenic expressing OXA-48 (and both OXA-48 and CTX-M-14) to assess their activity against the carbapenemase; MICs were also determined for the 18 Enterobacterales clinical isolates in order to evaluate the new inhibitors against also their resistance concomitant mechanisms. The MICs were determined in triplicate experiments, and the EUCAST 13.0 clinical breakpoints were followed (http://www.eucast.org/clinical_breakpoints).
(§3) For comparative evaluation of the activity of each inhibitor alone against the carbapenemase OXA-48, all inhibitors (at 4 mg/L) were tested in the presence of a carbapenem (ertapenem, adequate substrate) and a cephalosporin (ceftazidime, poor substrate) as reporter substrates. This prevented any possible masking effect produced by the different partner antibiotics. These assays were also performed with isogenic transformants and clinical isolates.

E. coli TG1 (OXA-48) = assay: microbe, parasite or virus in culture; format: cell-based, Escherichia coli; details: Escherichia coli
Procedure: as §2, §3

[2] = test system: K. pneumoniae strain 194 (MLST 392, No ESBL); assay: microbe, parasite or virus in culture; format: cell-based; details: Klebsiella pneumoniae; K. pneumoniae 194; β-lactamase inhibitor alone; read-out: MIC
Procedure: (§4) The efficacy of these new BLIs was also evaluated against 18 genetically diverse WGS-characterized collection of OXA-48-positive Enterobacterales recovered as part of the Carbapenem-resistant Enterobacterales Genome Database Project (https://genomes.cnag.cat/incredble) listed in Table S2 ([13]). Combinations of clinical isolates (five pairs of Klebsiella pneumoniae, two pairs of Enterobacter cloacae, and two pairs of E. coli) were chosen for analysis: (i) nine strains carrying ESBLs; and (ii) nine strains (genetically closer available strains) without ESBLs.
as §2, §3

[3] = test system: K. pneumoniae strain 238 (MLST 15, ESBL); assay: microbe, parasite or virus in culture; format: cell-based; details: Klebsiella pneumoniae
Procedure: as §4, §2, §3

[4] = test system: E. cloacae strain 231 (MLST 171, No ESBL); assay: microbe, parasite or virus in culture; format: cell-based; details: Enterobacter cloacae; E. cloacae 231; β-lactamase inhibitor alone; read-out: MIC
Procedure: as §4, §2, §3

[5] = test system: K. pneumoniae strain 23 (MLST 392, ESBL); assay: microbe, parasite or virus in culture; format: cell-based; details: Klebsiella pneumoniae
Procedure: as §4, §2, §3

[6] = test system: K. pneumoniae strain 413 (MLST 147, ESBL); assay: microbe, parasite or virus in culture; format: cell-based; details: Klebsiella pneumoniae
Procedure: as §4, §2, §3

[7] = test system: K. pneumoniae strain 497 (MLST 11, No ESBL); assay: microbe, parasite or virus in culture; format: cell-based; details: Klebsiella pneumoniae; K. pneumoniae 497; β-lactamase inhibitor alone; read-out: MIC
Procedure: as §4, §2, §3

[8] = test system: K. pneumoniae strain 237 (MLST 147, No ESBL); assay: microbe, parasite or virus in culture; format: cell-based; details: Klebsiella pneumoniae; K. pneumoniae 237; β-lactamase inhibitor alone; read-out: MIC
Procedure: as §4, §2, §3

[9] = test system: K. pneumoniae strain 170 (MLST 307, No ESBL); assay: microbe, parasite or virus in culture; format: cell-based; details: Klebsiella pneumoniae; K. pneumoniae 170; β-lactamase inhibitor alone; read-out: MIC
Procedure: as §4, §2, §3

[10] = test system: E. coli strain 224 (MLST 127, No ESBL); assay: microbe, parasite or virus in culture; format: cell-based; details: Escherichia coli; E. coli 224; β-lactamase inhibitor alone; read-out: MIC
Procedure: as §4, §2, §3

[11] = test system: E. coli strain 103 (MLST 10, ESBL); assay: microbe, parasite or virus in culture; format: cell-based; details: Escherichia coli
Procedure: as §4, §2, §3

[12] = test system: E. cloacae strain 235 (MLST 171, ESBL); assay: microbe, parasite or virus in culture; format: cell-based; details: Enterobacter cloacae
Procedure: as §4, §2, §3

[13] = test system: E. cloacae strain 281 (MLST 78, No ESBL); assay: microbe, parasite or virus in culture; format: cell-based; details: Enterobacter cloacae; E. cloacae 281; β-lactamase inhibitor alone; read-out: MIC
Procedure: as §4, §2, §3

[14] = test system: K. pneumoniae strain 125 (MLST 307, ESBL); assay: microbe, parasite or virus in culture; format: cell-based; details: Klebsiella pneumoniae
Procedure: as §4, §2, §3

[15] = test system: K. pneumoniae strain 19 (MLST 11, ESBL); assay: microbe, parasite or virus in culture; format: cell-based; details: Klebsiella pneumoniae
Procedure: as §4, §2, §3

[16] = test system: E. coli strain 177 (MLST 131, ESBL); assay: microbe, parasite or virus in culture; format: cell-based; details: Escherichia coli
Procedure: as §4, §2, §3

[17] = test system: E. cloacae strain 272 (MLST 78, ESBL); assay: microbe, parasite or virus in culture; format: cell-based; details: Enterobacter cloacae
Procedure: as §4, §2, §3

[18] = test system: K. pneumoniae strain 71 (MLST 15, No ESBL); assay: microbe, parasite or virus in culture; format: cell-based; details: Klebsiella pneumoniae; K. pneumoniae 71; β-lactamase inhibitor alone; read-out: MIC
Procedure: as §4, §2, §3

[19] = test system: E. coli strain 264 (MLST 131, No ESBL); assay: microbe, parasite or virus in culture; format: cell-based; details: Escherichia coli; E. coli 264; β-lactamase inhibitor alone; read-out: MIC
Procedure: as §4, §2, §3

E. coli TG1 = assay: microbe, parasite or virus in culture; format: cell-based; details: Escherichia coli, β-lactamase inhibitor alone
Procedure: as §2, §3

[20] = test system: E. coli HB4 ΔompC/F (CTX-M-14); assay: microbe, parasite or virus in culture; format: cell-based, Escherichia coli; details: Escherichia coli
Excerpt: as §1, §2, §3

E. coli HB4 ΔompC/F = assay: microbe, parasite or virus in culture; format: cell-based, Escherichia coli; details: Escherichia coli
Excerpt: as §1, §2, §3

[21] = test system: E. coli HB4 ΔompC/F (CTX-M-14 + OXA-48); assay: microbe, parasite or virus in culture; format: cell-based, Escherichia coli; details: for MIC: Escherichia coli
Excerpt: as §1, §2, §3

[22] = test system: E. coli HB4 ΔompC/F (OXA-48); assay: microbe, parasite or virus in culture; format: cell-based, Escherichia coli; details: Escherichia coli
Excerpt: as §1, §2, §3

[23] = test system: OXA-48-producing Enterobacterales clinical isolates; assay: MIC summary over clinical isolates; format: cell-based; details: clinical isolates
Procedure: as §4, §2, §3

[24] = test system: O=C(Cc1cccs1)N[C@@H]1C(=O)N2C(C(=O)O)=C(/C=C/c3ccc([N+](=O)[O-])cc3[N+](=O)[O-])CS[C@H]12; assay: purified protein, by the assay type; details: other: substrate hydrolysis by OXA-48; pH 7.4; 25.0 °C
[25] = OXA-48-producing E. coli hosts, BLI 4 mg/L

Chain of OXA-48 (Q6XEC0 23-265 limits assumed): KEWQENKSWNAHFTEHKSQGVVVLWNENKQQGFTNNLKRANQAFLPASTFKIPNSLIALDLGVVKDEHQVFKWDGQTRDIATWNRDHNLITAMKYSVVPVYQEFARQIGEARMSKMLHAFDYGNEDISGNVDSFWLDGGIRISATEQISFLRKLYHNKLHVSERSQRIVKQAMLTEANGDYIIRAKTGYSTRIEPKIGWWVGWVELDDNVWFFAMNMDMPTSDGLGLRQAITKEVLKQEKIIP

Molecule | MIC (E. coli TG1 (OXA-48)) [µg/mL] | MIC [2] [µg/mL] | MIC [3] [µg/mL] | MIC [4] [µg/mL] | MIC [5] [µg/mL] | MIC [6] [µg/mL] | MIC [7] [µg/mL] | MIC [8] [µg/mL] | MIC [9] [µg/mL] | MIC [10] [µg/mL] | MIC [11] [µg/mL] | MIC [12] [µg/mL] | MIC [13] [µg/mL] | MIC [14] [µg/mL] | MIC [15] [µg/mL] | MIC [16] [µg/mL] | MIC [17] [µg/mL] | MIC [18] [µg/mL] | MIC [19] [µg/mL] | MIC (E. coli TG1) [µg/mL] | also measured
NC(=O)[C@@H]1CC[C@@H]2CN1C(=O)N2OS(=O)(=O)O [Avibactam, avibactam] | 4 (≈ 15.1 µM) | 16 | 32 | 8 | 16 | 64 | ≥ 128 | 64 | 16 | 16 | 32 | 32 | 16 | 32 | ≥ 128 | 32 | 32 | 32 | 16 | 4 (≈ 15.1 µM) | t1/2 (OXA-48): 1,000 min; decrease of ertapenem MIC with BLI [1, 25]: 8–256 fold; MIC [20]: 16 µg/mL (≈ 60.3 µM); MIC (E. coli HB4 ΔompC/F): 8 µg/mL (≈ 30.2 µM); decrease of ertapenem MIC with BLI ([21]; E. coli HB4 coproducing CTX-M-14 and OXA-48, BLI 4 mg/L): 256 fold; MIC [21]: 16 µg/mL (≈ 60.3 µM); MIC [22]: 8 µg/mL (≈ 30.2 µM)
O=C(NNC(=O)[C@@H]1CC[C@@H]2CN1C(=O)N2OS(=O)(=O)O)[C@@H]1CCCNC1 [Zidebactam, zidebactam] | 0.12 (≈ 0.307 µM) | 0.5 | 0.25 | 0.25 | 0.5 | ≥ 128 | 32 | 0.5 | 0.5 | 0.25 | 8 | 2 | 0.25 | ≥ 128 | ≥ 128 | 0.5 | 0.5 | 0.5 | 0.12 | 0.12 (≈ 0.307 µM) | effect of ertapenem/BLI on bacterial growth [1, 25]: totally inhibited bacterial growth; MICs of inhibitor alone (range over strains) ([1]; TG1 and HB4 E. coli): 0.12 to 2 mg/L; reduction of cefepime MICs by BLI [23]: 2–512 fold; MIC [20]: 0.5 µg/mL (≈ 1.28 µM); MIC (E. coli HB4 ΔompC/F): 0.5 µg/mL (≈ 1.28 µM); MIC [21]: 0.5 µg/mL (≈ 1.28 µM); MIC [22]: 0.5 µg/mL (≈ 1.28 µM)
OXA-48 (Klebsiella pneumoniae) |  |  |  |  |  |  |  |  |  |  |  |  |  |  |  |  |  |  |  |  | Km [24]: 56.5 µM; kcat [24]: 171.4 s⁻¹; kcat/Km [24]: 3.05e+06 M⁻¹ s⁻¹
